# Experimental data reported in BindingDB's records for doi:10.1111/j.1476-5381.1996.tb15304.x (Smithkline Beecham Pharmaceuticals, 1996).
# Columns and labels:
# [1] = target: 5-hydroxytryptamine receptor 2A (Rattus norvegicus, UniProt P14842)
# [2] = target: D(2) dopamine receptor (Homo sapiens, UniProt P14416)
# [3] = target: T1, Solute carrier family 22 member 1 (Rattus norvegicus, UniProt Q63089)
# T1 sequence (Q63089 whole entry): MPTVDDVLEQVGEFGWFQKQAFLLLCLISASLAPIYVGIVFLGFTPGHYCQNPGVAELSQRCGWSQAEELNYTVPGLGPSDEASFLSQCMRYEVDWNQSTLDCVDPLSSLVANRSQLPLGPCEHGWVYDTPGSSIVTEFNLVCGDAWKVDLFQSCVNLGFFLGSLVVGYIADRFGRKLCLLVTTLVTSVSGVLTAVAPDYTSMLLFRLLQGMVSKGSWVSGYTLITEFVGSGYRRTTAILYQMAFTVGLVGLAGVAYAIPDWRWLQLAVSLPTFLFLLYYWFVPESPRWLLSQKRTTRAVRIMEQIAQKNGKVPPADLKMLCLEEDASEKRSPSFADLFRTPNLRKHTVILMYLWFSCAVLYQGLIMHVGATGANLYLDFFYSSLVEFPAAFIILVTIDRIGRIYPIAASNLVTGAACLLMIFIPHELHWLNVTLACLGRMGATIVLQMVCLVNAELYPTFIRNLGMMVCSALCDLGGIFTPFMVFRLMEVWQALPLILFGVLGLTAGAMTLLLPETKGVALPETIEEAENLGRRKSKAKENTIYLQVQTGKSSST
# [4] = target: T2, 5-hydroxytryptamine receptor 1F (Homo sapiens, UniProt P30939)
# T2 sequence (P30939 whole entry): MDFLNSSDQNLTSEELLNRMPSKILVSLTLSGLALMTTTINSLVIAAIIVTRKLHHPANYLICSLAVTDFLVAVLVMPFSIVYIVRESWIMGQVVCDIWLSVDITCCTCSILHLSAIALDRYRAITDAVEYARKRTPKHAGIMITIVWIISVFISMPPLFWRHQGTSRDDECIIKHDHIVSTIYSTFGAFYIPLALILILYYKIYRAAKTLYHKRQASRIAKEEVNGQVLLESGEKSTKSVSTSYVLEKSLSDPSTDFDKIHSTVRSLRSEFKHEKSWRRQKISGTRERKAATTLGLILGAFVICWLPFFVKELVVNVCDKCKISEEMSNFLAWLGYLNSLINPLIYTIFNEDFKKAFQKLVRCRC
# [5] = target: Beta-2 adrenergic receptor (Mus musculus, UniProt P18762)
# [6] = target: 5-hydroxytryptamine receptor 1D (Homo sapiens, UniProt P28221)
# [7] = target: T3, 5-hydroxytryptamine receptor 3A (Rattus norvegicus, UniProt P35563)
# T3 sequence (P35563 whole entry): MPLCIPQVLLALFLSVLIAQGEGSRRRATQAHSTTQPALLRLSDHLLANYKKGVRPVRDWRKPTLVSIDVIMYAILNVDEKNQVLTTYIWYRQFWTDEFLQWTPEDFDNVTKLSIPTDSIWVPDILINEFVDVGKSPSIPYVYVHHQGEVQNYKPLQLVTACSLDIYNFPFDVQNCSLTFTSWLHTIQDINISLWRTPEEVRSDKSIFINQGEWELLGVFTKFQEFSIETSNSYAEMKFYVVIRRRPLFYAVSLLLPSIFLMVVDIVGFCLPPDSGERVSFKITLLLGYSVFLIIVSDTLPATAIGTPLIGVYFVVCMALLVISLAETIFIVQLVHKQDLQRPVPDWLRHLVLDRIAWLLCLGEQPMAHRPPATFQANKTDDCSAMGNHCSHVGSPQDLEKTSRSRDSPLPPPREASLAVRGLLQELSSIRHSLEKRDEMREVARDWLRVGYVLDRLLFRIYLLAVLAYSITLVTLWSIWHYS
# [8] = target: Beta-1 adrenergic receptor (Homo sapiens, UniProt P08588)
# [9] = target: Histamine H2 receptor (Mus musculus, UniProt P97292)
# [10] = target: 5-hydroxytryptamine receptor 7 (Homo sapiens, UniProt P34969)
# [11] = target: T4, D(4) dopamine receptor (Homo sapiens, UniProt P21917)
# T4 sequence (P21917 whole entry): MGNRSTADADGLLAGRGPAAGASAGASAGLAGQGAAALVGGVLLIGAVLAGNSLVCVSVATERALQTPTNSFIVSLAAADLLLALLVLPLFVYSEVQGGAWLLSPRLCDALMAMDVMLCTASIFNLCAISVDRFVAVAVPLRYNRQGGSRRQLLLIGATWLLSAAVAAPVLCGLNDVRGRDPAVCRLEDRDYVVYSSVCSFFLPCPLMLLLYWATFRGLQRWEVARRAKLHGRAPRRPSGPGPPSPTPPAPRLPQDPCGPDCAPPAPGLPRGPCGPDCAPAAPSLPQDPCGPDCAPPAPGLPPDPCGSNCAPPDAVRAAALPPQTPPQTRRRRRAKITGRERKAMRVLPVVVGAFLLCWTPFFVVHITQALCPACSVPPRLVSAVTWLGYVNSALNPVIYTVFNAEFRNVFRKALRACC
# [12] = target: 5-hydroxytryptamine receptor 1E (Homo sapiens, UniProt P28566)
# [13] = target: 5-hydroxytryptamine receptor 7 (Rattus norvegicus, UniProt P32305)
# [14] = target: T5, 5-hydroxytryptamine receptor 2C (Homo sapiens, UniProt P28335)
# T5 sequence (P28335 whole entry): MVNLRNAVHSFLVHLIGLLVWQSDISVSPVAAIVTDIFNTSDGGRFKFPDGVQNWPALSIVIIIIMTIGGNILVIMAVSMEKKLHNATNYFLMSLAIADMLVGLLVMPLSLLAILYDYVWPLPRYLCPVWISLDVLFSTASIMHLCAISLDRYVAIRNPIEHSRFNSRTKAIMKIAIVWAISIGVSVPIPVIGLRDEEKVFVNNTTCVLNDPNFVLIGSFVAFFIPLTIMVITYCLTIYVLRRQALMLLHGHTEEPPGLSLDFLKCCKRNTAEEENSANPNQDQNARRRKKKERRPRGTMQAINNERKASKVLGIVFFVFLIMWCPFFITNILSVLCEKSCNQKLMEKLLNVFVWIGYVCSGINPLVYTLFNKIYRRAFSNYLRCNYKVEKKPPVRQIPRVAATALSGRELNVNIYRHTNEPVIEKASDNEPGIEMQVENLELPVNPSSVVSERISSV
# [15] = target: 5-hydroxytryptamine receptor 1B (Homo sapiens, UniProt P28222)
# [16] = target: T6, 5-hydroxytryptamine receptor 2C (Rattus norvegicus, UniProt P08909)
# T6 sequence (P08909 whole entry): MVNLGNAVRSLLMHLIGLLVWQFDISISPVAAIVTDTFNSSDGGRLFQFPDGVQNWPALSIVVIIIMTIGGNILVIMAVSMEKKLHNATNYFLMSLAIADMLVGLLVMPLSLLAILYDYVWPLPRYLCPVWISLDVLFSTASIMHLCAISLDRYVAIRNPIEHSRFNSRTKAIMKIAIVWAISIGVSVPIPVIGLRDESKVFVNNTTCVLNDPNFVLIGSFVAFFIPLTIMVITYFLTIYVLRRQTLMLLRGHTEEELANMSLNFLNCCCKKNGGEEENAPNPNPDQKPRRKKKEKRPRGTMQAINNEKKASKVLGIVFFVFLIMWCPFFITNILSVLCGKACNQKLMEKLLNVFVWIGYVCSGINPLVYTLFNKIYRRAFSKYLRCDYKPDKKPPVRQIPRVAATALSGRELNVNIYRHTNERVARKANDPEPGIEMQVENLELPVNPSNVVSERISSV
# [17] = target: D(1A) dopamine receptor (Homo sapiens, UniProt P21728)
# [18] = target: T7, Adrenergic alpha2 receptor (Mesocricetus auratus, UniProt Q60533)
# T7 sequence (Q60533 whole entry): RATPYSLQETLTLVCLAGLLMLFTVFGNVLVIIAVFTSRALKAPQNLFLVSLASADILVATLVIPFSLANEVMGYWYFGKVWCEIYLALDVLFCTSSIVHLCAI
# [19] = target: 5-hydroxytryptamine receptor 4 (Rattus norvegicus, UniProt Q62758)
# Sequence of 5-hydroxytryptamine receptor 4 (Q62758 whole entry): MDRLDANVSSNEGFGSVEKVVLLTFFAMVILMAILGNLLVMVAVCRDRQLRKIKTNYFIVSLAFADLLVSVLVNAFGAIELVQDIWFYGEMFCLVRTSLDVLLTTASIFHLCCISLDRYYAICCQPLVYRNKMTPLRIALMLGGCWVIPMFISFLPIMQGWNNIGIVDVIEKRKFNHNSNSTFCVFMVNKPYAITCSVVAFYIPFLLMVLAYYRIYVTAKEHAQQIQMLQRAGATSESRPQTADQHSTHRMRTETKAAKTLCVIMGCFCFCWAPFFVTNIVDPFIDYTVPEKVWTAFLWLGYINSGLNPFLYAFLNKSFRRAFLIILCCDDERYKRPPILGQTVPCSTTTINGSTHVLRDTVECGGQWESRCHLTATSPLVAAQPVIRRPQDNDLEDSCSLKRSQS
# Sequence of 5-hydroxytryptamine receptor 1B (P28222 whole entry): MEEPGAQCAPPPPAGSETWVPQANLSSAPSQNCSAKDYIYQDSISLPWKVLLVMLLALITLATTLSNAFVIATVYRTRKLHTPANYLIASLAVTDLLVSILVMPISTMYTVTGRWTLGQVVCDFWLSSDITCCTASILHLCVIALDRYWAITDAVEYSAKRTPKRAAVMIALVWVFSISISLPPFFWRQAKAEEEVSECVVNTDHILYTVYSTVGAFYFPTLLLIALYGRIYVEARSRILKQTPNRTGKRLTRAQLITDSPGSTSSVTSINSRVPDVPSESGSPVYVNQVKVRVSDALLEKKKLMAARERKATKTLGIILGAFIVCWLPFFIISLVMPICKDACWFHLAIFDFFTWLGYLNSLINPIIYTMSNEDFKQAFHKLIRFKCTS
# Sequence of 5-hydroxytryptamine receptor 2A (P14842 whole entry): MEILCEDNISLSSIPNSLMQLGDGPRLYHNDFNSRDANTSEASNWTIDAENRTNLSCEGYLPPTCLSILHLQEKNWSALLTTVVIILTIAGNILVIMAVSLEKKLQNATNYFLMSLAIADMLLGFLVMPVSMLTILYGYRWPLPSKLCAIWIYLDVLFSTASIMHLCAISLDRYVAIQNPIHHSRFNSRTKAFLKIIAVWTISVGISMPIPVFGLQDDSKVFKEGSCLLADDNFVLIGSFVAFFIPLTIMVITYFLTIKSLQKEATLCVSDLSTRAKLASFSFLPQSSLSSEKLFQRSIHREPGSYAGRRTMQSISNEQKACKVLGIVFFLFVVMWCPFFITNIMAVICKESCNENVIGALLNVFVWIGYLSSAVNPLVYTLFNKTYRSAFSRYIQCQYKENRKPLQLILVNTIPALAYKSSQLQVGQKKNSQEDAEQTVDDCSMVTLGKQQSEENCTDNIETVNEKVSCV
# Sequence of 5-hydroxytryptamine receptor 7 (Rattus norvegicus, UniProt P32305) (P32305 whole entry): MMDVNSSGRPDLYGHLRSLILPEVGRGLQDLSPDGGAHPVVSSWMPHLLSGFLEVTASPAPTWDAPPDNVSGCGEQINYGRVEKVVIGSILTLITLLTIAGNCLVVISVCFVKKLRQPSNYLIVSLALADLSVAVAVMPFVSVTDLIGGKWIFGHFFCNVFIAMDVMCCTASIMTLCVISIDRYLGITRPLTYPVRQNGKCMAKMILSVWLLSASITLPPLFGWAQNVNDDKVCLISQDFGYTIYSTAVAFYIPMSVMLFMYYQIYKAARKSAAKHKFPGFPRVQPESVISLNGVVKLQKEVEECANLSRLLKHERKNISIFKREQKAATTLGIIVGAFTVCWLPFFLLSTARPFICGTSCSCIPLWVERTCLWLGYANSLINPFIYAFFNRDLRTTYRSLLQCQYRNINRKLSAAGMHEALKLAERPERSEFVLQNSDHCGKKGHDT
# Sequence of 5-hydroxytryptamine receptor 1D (P28221 whole entry): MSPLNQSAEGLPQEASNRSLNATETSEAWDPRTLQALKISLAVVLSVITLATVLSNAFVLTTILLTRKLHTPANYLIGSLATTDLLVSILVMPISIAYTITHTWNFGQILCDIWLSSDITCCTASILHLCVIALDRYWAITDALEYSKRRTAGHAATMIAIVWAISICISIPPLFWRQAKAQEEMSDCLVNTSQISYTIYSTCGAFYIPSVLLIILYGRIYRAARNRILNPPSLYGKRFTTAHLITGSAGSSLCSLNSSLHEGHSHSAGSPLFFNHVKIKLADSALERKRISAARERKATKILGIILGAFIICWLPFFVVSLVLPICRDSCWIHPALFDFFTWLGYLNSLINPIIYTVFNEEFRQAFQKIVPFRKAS
# Sequence of Beta-2 adrenergic receptor (P18762 whole entry): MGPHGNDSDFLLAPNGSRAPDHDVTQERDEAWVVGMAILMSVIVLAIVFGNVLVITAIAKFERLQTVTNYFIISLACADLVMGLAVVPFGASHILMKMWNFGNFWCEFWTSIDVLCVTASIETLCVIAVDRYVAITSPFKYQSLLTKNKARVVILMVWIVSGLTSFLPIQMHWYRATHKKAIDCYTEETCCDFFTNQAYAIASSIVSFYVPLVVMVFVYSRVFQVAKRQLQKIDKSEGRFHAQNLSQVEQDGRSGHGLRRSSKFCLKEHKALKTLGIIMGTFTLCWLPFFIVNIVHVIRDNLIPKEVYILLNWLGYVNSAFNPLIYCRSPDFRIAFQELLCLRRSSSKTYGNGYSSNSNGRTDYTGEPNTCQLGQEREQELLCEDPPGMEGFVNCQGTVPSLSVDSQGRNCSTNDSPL
# Sequence of 5-hydroxytryptamine receptor 1E (P28566 whole entry): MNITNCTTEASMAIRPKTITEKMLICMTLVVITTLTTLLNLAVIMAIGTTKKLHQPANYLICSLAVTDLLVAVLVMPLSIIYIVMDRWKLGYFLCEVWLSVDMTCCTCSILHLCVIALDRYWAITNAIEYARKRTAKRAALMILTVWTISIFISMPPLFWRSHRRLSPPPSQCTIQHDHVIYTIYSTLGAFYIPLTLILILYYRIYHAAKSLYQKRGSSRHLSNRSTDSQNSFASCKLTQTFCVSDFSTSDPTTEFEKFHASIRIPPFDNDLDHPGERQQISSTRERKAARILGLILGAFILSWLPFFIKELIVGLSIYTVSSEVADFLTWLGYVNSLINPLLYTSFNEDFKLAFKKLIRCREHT
# Sequence of Histamine H2 receptor (P97292 whole entry): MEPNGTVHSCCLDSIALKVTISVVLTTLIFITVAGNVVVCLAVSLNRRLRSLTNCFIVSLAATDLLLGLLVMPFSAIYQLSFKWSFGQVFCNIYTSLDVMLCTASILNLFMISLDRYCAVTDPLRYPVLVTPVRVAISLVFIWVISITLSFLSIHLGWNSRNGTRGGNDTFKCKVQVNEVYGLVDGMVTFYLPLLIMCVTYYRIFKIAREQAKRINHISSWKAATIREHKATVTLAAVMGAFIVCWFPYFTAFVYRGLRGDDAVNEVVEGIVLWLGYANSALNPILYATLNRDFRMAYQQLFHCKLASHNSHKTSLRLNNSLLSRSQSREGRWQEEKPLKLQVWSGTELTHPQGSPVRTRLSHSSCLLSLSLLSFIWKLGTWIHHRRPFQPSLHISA
# Sequence of Beta-1 adrenergic receptor (P08588 whole entry): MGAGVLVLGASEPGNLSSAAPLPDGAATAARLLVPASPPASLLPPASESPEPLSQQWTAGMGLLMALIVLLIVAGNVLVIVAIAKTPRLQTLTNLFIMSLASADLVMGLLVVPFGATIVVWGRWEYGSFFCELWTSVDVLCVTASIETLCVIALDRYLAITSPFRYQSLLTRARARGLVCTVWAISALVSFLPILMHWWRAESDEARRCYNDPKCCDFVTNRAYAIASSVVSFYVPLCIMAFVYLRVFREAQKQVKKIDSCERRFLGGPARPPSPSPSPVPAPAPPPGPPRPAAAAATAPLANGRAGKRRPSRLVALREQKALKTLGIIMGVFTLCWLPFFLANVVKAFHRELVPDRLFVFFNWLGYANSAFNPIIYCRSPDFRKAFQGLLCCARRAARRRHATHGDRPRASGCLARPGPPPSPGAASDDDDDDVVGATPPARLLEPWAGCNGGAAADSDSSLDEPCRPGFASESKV
# Sequence of D(1A) dopamine receptor (P21728 whole entry): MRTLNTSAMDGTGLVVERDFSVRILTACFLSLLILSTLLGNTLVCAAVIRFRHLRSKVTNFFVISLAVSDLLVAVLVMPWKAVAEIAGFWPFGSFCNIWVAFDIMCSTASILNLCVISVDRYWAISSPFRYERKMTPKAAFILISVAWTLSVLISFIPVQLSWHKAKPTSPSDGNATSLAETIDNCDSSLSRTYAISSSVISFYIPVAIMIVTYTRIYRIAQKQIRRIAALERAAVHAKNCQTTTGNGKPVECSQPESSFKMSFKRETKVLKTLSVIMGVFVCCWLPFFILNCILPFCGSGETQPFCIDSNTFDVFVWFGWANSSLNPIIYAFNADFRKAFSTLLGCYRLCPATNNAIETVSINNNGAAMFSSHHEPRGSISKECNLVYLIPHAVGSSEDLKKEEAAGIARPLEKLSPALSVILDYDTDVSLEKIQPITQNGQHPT
# Sequence of 5-hydroxytryptamine receptor 7 (Homo sapiens, UniProt P34969) (P34969 whole entry): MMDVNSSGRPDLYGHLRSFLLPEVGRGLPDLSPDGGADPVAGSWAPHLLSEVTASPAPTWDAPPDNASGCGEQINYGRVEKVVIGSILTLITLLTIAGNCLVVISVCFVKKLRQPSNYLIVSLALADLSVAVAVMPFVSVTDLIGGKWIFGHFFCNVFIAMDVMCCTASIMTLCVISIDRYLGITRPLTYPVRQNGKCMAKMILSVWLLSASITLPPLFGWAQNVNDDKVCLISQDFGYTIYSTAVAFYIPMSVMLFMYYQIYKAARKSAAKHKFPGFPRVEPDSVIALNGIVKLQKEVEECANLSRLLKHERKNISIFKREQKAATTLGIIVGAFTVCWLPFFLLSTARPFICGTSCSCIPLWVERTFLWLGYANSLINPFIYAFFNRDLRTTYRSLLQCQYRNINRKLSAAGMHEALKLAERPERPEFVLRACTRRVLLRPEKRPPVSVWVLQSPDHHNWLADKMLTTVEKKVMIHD
compound,measurement,setting,value
CC(N)Cc1c[nH]c2ccc(OCc3cccs3)cc12 (centres undefined) [NSC_5311036],Ki,[1],0.251 µM
same,Ki,[2],> 10 µM
same,Ki,[3],> 10 µM
same,Ki,[4],7.94 µM
same,Ki,[5],> 10 µM
same,Ki,[6],0.631 µM
same,Ki,[7],0.316 µM
same,Ki,[8],> 10 µM
same,Ki,[9],> 10 µM
same,Ki,[10],3.16 µM
same,Ki,[11],> 10 µM
same,Ki,[12],3.16 µM
same,Ki,[13],1 µM
same,Ki,[14],0.501 µM
same,Ki,[15],0.126 µM
same,Ki,[16],0.126 µM
same,Ki,[17],> 10 µM
same,Ki,[18],> 10 µM
same,Ki,[19],> 10 µM
